The values below come from patent US20050054653A1, “Pteridine derivatives, method of producing them and their application” (Faustus Forschungs Cie. Translational Cancer Research GmbH, priority 2002, published 2005).

Common to all, as to type: cell-based
The test system of one test is NCI-H460. Put plainly: Growth inhibition of human tumor cell line NCI-H460. The settings on record: NCI-H460 bronchial carcinoma. The source says:
(§1) FIG. 1 is a representation of the IC50 values of the growth inhibition when using the compounds E288, E289 and E499 on the human tumor cell lines COLO 205 and NCI-H460.
(§2) Further in-vitro results of the compounds according to the invention E288 (6-chloro-2-piperazino-4,7-dithiazolidino-pteridine) and E289 (6-methoxy-2-piperazino-4,7-dithiazolidino-pteridine) are summarized in the following in comparison to E499 (6-chloro-2-piperazino-4,7-dipyrrolidino-pteridine) (all IC50 figures are described in [μM]).
(§3) This includes the human cell lines A431 ([…]), OVCAR-3 (ovarian carcinoma), BT-549 and MCF-7 (mammary carcinoma), SK-MEL-28 and SK-MEL-5 (melanoma), SW 620 and HCT-15 (colon), A549 (lung carcinoma) as well as the glioblastoma cell line C6 of the rat.

The subject of the next test is COLO 205. Nature of the test: Growth inhibition of human tumor cell line COLO 205. The note with it: COLO 205 colon carcinoma.
From the text: as §1, §2, §3

The next test concerns human cell line LXFL529L. Put plainly: Proliferation assay (sulforhodamin B assay), growth inhibition of tumor cells. The settings on record: LXFL 529L. How it is done: The inhibition of the growth of tumor cells due to the compounds according to the invention was determined on the human cell line LXFL529L. As a proliferation assay the sulforhodamin B assay as described by Skehan et al. (J. Natl. Cancer Inst. 82:1107-1112 (1990)) was used.

`Clc1nc2c(N3CCSC3)nc(N3CCNCC3)nc2nc1N1CCSC1` [E288, 6-Chloro-2-Piperazino-4,7-Dithiazolidino-Pteridine]: the figures for the half-maximal inhibitory concentration (IC50) in the test on NCI-H460 and in the test on COLO 205 were 18.2 µM and 6.19 µM, respectively. `COc1nc2c(N3CCSC3)nc(N3CCNCC3)nc2nc1N1CCSC1` [E289, 6-Methoxy-2-Piperazino-4,7-Dithiazolidino-Pteridine]: the IC50 came out at 13.9 µM in the test on NCI-H460 and 9.64 µM with COLO 205.

Consider `Clc1nc2c(N3CCCC3)nc(N3CCNCC3)nc2nc1N1CCCC1` [E499, 6-Chloro-2-Piperazino-4,7-Dipyrrolidino-Pteridine], for which the IC50 with NCI-H460 (Homo sapiens) came to 31.6 µM; with COLO 205 (Homo sapiens), 9.75 µM. For the molecule `COc1nc2c(N3CCCC3)nc(N3CCNCC3)nc2nc1N1CCCC1` [E 293, 6-Methoxy-2-Piperazino-4,7-Dipyrrolidino-Pteridine], 3.4 ± 1 µM corresponded to half-maximal inhibition in the test with human cell line LXFL529L (IC50). In the test on human cell line LXFL529L, `CSc1nc2c(N3CCCC3)nc(N3CCNCC3)nc2nc1N1CCCC1` [E 294, 6-Methylthio-2-Piperazino-4,7-Dipyrrolidino-Pteridine] gave an IC50 of 3 ± 0.3 µM.
